Experimental data: patent US20080031866A1, “METHOD FOR MODULATING THE PHARMACOKINETICS AND METABOLISM OF A THERAPEUTIC AGENT” (priority 2006, published 2008)
Like-named read-outs stand apart in the source and are kept apart here.

How the values were obtained:
[1] = system: β-glucuronidase derived from E. Coli; test: In vitro incubation of Glu A and Glu B with β-glucuronidase; assay type: in vitro ADME; conditions: for Glucuronide remaining: 500 μM glucuronide, β-glucuronidase, 37° C.; for Stability in control samples without β-glucuronidase: control incubation, no enzyme
Method: β-glucuronidase derived from E. Coli, glucurase at a concentration of 5,000 units/ml and bovine serum albumin were obtained from Sigma (St. Louis, Mo.). Glu A and Glu B were incubated at a concentration of 500 μM with β-glucuronidase ([…]) in 100 mM potassium acetate buffer solution in a 0.5 ml filter tube. The incubations were run in triplicate.
To each filter tube, 65 μl of 100 mM potassium acetate buffer, 5 μl of bovine serum albumin, and 100 μl of glucurase were added (100 mM potassium acetate was added to the control wells). The pH was adjusted to either pH 5.0 using 1N potassium hydroxide. 10 μl of 10 mM GluA or GluB were then added and the filter tubes were incubated for 30 minutes, 60 minutes or 18 hours at 37° C. Following incubation 20 μl of acetonitrile was added to the filter tubes and the filter tubes were centrifuged. The resulting filtrate was then analyzed by HPLC.
Glu A (500 μM) and Glu B (500 μM) were incubated with β-glucuronidase at 37° C. in pH 5.0 and pH 7.4 buffers. The pH 7.4 buffer is representative of the in vivo pH range in the GI tract. The results of each treatment are shown in Tables 5 (pH 5.0) and Table 6 (pH 7.4).
Glu A was prepared fresh in these experiments. A time-dependent incubation of Glu A and Glu B was carried out for 2, 4 and 6 hours.

[2] = Intraduodenal dosing with and without β-glucuronidase, catheterized rat; assay type: in vivo; conditions: 10 mg/kg, rats N=6; for AUC / Cmax / concentration at 0 h / concentration at 0.25 h / concentration at 0.5 h / concentration at 1 h / concentration at 2 h / concentration at 3 h / concentration at 4 h / concentration at 5 h / concentration at 6 h: male, Sprague Dawley, rat, plasma; for AUC: read-out: AUC average ± standard deviation 0 to 6 hours; for Cmax: read-out: Cmax average ± standard deviation; for concentration at 0 h / concentration at 0.25 h / concentration at 0.5 h / concentration at 1 h / concentration at 2 h / concentration at 3 h / concentration at 4 h / concentration at 5 h / concentration at 6 h: other: intraduodenal
Method: A catheterized rat model was used in which the agent alone or agent and β-glucuronidase enzyme was administered intraduodenally or intracolonically. The intraduodenal and intracolonic dosing was intended to prevent the potential for loss of enzymatic activity when orally dosing the β-glucuronidase (e.g. by degradation in the stomach). […]
For the oral gavage dosing, Compound 1 was prepared in neat PEG-400. For the intraduodenal and intracolonic dosing solutions, Compound 1 was added to neat Tween 80, the mixture was sonicated for thirty minutes at 45° C. until Compound 1 was completely dissolved and then deionized (DI) water was added to form a solution consisting of 20% Tween 80 and 80% DI water by weight.
For the oral enzyme solutions, β-glucuronidase was added to the final formulation at a concentration of 57,600 units/ml.
For the intraduodenal and intracolonic dosing, male Sprague Dawley rats weighing 300-400 g were purchased from Charles River Labs. All rat experiments were conducted under approved animal protocols. The rats were catheterized at Charles River Labs and had one or more of the following chronic catheters for dosing and sampling: jugular/carotid, duodenal, and colonic. Rats were limited to only one GI catheter and one vascular catheter. For IV dosing, rats were purchased with jugular and carotid catheters for dosing in the jugular catheter and blood sampling through the carotid catheter. For intraduodenal/intracolonic dosing, rats had one of the GI catheters for dosing and a carotid catheter for blood sampling.
The surgeries were done two weeks prior to start of testing. Rats were fed 4 hours post dose administration. All rats were dosed without anesthesia and sacrificed at the end of the study.
A quantitative method for determining the amount of (6,7-dimethoxy-2,4-dihydro-indeno[1,2-c]pyrazol-3-yl)-(3-fluoro-phenyl)-amine Compound 1 and its major metabolites, glucuronide A (Cpd 1-GluA) and glucuronide B (Cpd 1-GluB) (see Scheme A) in rat plasma was developed using phenacetin as an internal standard. [drawing 1]
The two glucuronide conjugates were prepared and purified to permit accurate quantification of the levels of intact parent Compound 1 versus Cpd 1-GluA and Cpd 1-GluB. Each standard curve for Compound 1, Cpd 1-GluA, and Cpd 1-GluB generated from rat plasma included ten concentration levels. […] The quantitative procedure for each sample included: sample preparation, HPLC separation and mass spectrometry detection.
The rat plasma was prepared using protein precipitation techniques. Reference standards and quality control samples in rat plasma for Compound 1 were transferred to a 96 deep-well plate. The precipitation solution contained 100 ng/ml of internal standard in acetonitrile. 300 μl of precipitation solution were added to 100 μl of each standard, quality control and plasma sample. Samples were vortexed for 10 mins, then centrifuged at 4500 RPM for 10 mins. 10 μl of each sample were injected for LC/MS/MS analysis.
The HPLC column chosen for the bioanalysis was purchased from Thermo Electron (Hypersil BetaBasic C18, 5 cm×2.1 mm). The eluting solvents were composed of Solvent A: 0.1% formic acid in H2O and Solvent B: 0.1% formic acid in acetonitrile. A step gradient was used and flow rate was 300 μl/min. The total run time was 3.2 mins. Solvent B was increased from 35% at 0 min to 75% at 2.1 mins and decreased back to 35% at 2.2 mins. The retention times for Compound 1, phenacetin, Cpd 1-GluA and Cpd 1-GluB were 1.1 min, 0.9 min, 1.3 min, and 1.6 min, respectively.
API3000 with a Turbo Ionspray interface from Applied Biosystems was used for the detection of Compound 1, the internal standard and major metabolites. Electrospray ionization was performed in the positive ion mode heated nebulizer with a temperature of 300° C. LC/MS/MS chromatograms were acquired in MRM (multiple reaction mode). […]

Stability in DMSO = assay type: physicochemical; conditions: especially after freezing and thawing
[3] = Compound 1 10 mg/kg intraduodenal with β-glucuronidase
[4] = Compound 1 10 mg/kg intraduodenal without enzyme

Structure (SMILES): COc1cc2c(cc1OC)-c1n[nH]c(N(c3cccc(F)c3)[C@H]3O[C@@H](C(=O)O)[C@H](O)[C@@H](O)[C@@H]3O)c1C2 [Cpd 1-GluA]
- Glucuronide remaining ([1]; pH 5.0, 0 hr): 100% Glu-A
- Glucuronide remaining ([1]; pH 5.0, 0.5 hrs): 60% Glu-A
- Glucuronide remaining ([1]; pH 5.0, 1 hr): 34% Glu-A
- Glucuronide remaining ([1]; pH 5.0, 18 hrs): 0% Glu-A
- Glucuronide remaining ([1]; pH 7.4, 0 hr): 100% Glu-A
- Glucuronide remaining ([1]; pH 7.4, 2 hrs): 67% Glu-A
- Glucuronide remaining ([1]; pH 7.4, 4 hrs): 48% Glu-A
- Glucuronide remaining ([1]; pH 7.4, 6 hrs): 23% Glu-A
- Stability in control samples without β-glucuronidase [1]: stable
- AUC [2, 3]: 8940 ± 2140 ng·h/mL
- Cmax [2, 3]: 6450 ng/mL
- AUC [2, 4]: 1220 ± 371 ng·h/mL
- Cmax [2, 4]: 717 ± 171 ng/mL
- concentration at 0 h [2, 3]: 0 ng/mL
- concentration at 0.25 h [2, 3]: 6450 ng/mL
- concentration at 0.5 h [2, 3]: 4820 ng/mL
- concentration at 1 h [2, 3]: 3860 ng/mL
- concentration at 2 h [2, 3]: 812 ± 426 ng/mL
- concentration at 3 h [2, 3]: 462 ± 208 ng/mL
- concentration at 4 h [2, 3]: 480 ± 107 ng/mL
- concentration at 5 h [2, 3]: 420 ± 74.1 ng/mL
- concentration at 6 h [2, 3]: 462 ± 113 ng/mL
- concentration at 0 h [2, 4]: 0 ng/mL
- concentration at 0.25 h [2, 4]: 666 ± 198 ng/mL
- concentration at 0.5 h [2, 4]: 687 ± 178 ng/mL
- concentration at 1 h [2, 4]: 463 ± 164 ng/mL
- concentration at 2 h [2, 4]: 118 ± 36.3 ng/mL
- concentration at 3 h [2, 4]: 66.6 ± 42 ng/mL
- concentration at 4 h [2, 4]: 88.2 ± 53.9 ng/mL
- concentration at 5 h [2, 4]: 83.1 ± 23.2 ng/mL
- concentration at 6 h [2, 4]: 90.2 ± 28.1 ng/mL
- AUC average ± standard deviation 0 to 6 hours [2, 3]: 8,723.2 ± 2,132.6 ng · hr/ml
- AUC average ± standard deviation 0 to 6 hours [2, 4]: 1,172.7 ± 361.2 ng · hr/ml
- Stability in DMSO (Stability in DMSO): relatively unstable

Structure (SMILES): COc1cc2c(cc1OC)-c1nn(C3OC(C(=O)O)C(O)C(O)C3O)c(Nc3cccc(F)c3)c1C2 (stereo in doubt) [Cpd 1-GluB]
- Glucuronide remaining ([1]; pH 5.0, 0 hr): 100% Glu-B
- Glucuronide remaining ([1]; pH 5.0, 0.5 hrs): 100% Glu-B
- Glucuronide remaining ([1]; pH 5.0, 1 hr): 100% Glu-B
- Glucuronide remaining ([1]; pH 7.4, 0 hr): 100% Glu-B
- Glucuronide remaining ([1]; pH 7.4, 2 hrs): 100% Glu-B
- Glucuronide remaining ([1]; pH 7.4, 4 hrs): 100% Glu-B
- Stability in control samples without β-glucuronidase [1]: stable
- AUC [2, 3]: 1770 ng·h/mL
- Cmax [2, 3]: 755 ± 509 ng/mL
- AUC [2, 4]: 128 ± 55.3 ng·h/mL
- Cmax [2, 4]: 75.7 ± 27.4 ng/mL
- concentration at 0 h [2, 3]: 0 ng/mL
- concentration at 0.25 h [2, 3]: 508 ± 342 ng/mL
- concentration at 0.5 h [2, 3]: 503 ± 363 ng/mL
- concentration at 1 h [2, 3]: 676 ± 586 ng/mL
- concentration at 2 h [2, 3]: 275 ± 260 ng/mL
- concentration at 3 h [2, 3]: 271 ± 181 ng/mL
- concentration at 4 h [2, 3]: 194 ± 165 ng/mL
- concentration at 5 h [2, 3]: 146 ± 84.4 ng/mL
- concentration at 6 h [2, 3]: 119 ± 108 ng/mL
- concentration at 0 h [2, 4]: 0 ng/mL
- concentration at 0.25 h [2, 4]: 70.2 ± 29.3 ng/mL
- concentration at 0.5 h [2, 4]: 72.4 ± 28.2 ng/mL
- concentration at 1 h [2, 4]: 51.2 ± 24.9 ng/mL
- concentration at 2 h [2, 4]: 13.5 ± 5.5 ng/mL
- concentration at 3 h [2, 4]: 7.1 ± 5 ng/mL
- concentration at 4 h [2, 4]: 9.6 ± 6.7 ng/mL
- concentration at 5 h [2, 4]: 9.2 ± 4.1 ng/mL
- concentration at 6 h [2, 4]: 10.4 ± 4 ng/mL
